Test results: patent publication US10717757B2, “Ketolides having antibacterial activity” (BIOPHARMATI SA, priority 2016, dated 2020)
≈ marks a conversion by molar mass, not a printed value. Where “and” joins values, the source holds several entries; their conditions need not be identical. Equal entries are not always repeated.

Legend:
[1] = tested on: S. pneumoniae ATCC 49619 (CLSI QC strain); test: Minimum inhibitory concentration (MIC), broth microdilution, QC strain; assay type: cell-based, Streptococcus pneumoniae; settings: Streptococcus pneumoniae; ATCC49619 QC strain; MIC in duplicates; read-out: MIC Strep. Pneumoniae ATCC49619 QC strain
Experimental: (§1) Protocols for Determining Minimum Inhibitory Concentration (MIC) of Test Compounds Against Streptococcus Pneumoniae Strains
(§2) The test strains are revived from frozen stock on blood agar plates and incubated at 35±2° C. for 18-20 hours in 5% CO2. Colonies are directly suspended from an overnight grown agar culture in CAMHB/saline and optical density adjusted to 0.5 McFarland turbidity standard (1-2×10^8 cfu/mL). Adjusted cultures are further diluted 1:100 using CAMHB such that after inoculation each well finally contains ˜5×10^5 cfu/mL. For broth dilution testing of Streptococcus species, CAMHB is supplemented with 2.5-5% v/v LHB. Colony counts of inoculum suspension is estimated by ten-fold serial dilutions and plating each dilution on agar plate. After incubation, the plates are observed for growth and microbial counts determined.
(§3) Compounds are weighed and dissolved in water/DMSO/other solvent to yield 1 mg/mL stock solution. Serial two-fold dilutions of the test compounds and reference antibiotics are prepared. 50 μL of the diluted drug solutions are dispensed in wells of microtiter trays (96 well).
(§4) To each of the wells of the microtiter tray, 50 μL of the diluted organism are inoculated to obtain a final inoculum density of ˜5×10^5 cfu/mL. Broth control, compound control and organism control wells are set up.
(§5) MIC testing are done in duplicates
(§6) MIC is defined as the lowest concentration of an antimicrobial agent that prevents visible growth of a microorganism in broth dilution susceptibility test.
(§7) After incubation period, growth of organism in the wells are detected by unaided eye facilitated by a viewing device. The amount of growth in the drug-containing wells are compared with the amount of growth in the organism-control wells.

[2] = tested on: S. pneumoniae AUCC479, macrolide & penicillin sensitive; test: Minimum inhibitory concentration (MIC), broth microdilution, AUCC479; assay type: cell-based, Streptococcus pneumoniae
Experimental: as §1, §2, §3, §4, §5, §6, §7

[3] = tested on: S. pneumoniae AUCC488, macrolide & penicillin resistant; test: Minimum inhibitory concentration (MIC), broth microdilution, AUCC488; assay type: cell-based, Streptococcus pneumoniae
Experimental: as §1, §2, §3, §4, §5, §6, §7

[4] = tested on: S. pneumoniae AUCC489, macrolide & penicillin resistant; test: Minimum inhibitory concentration (MIC), broth microdilution, AUCC489; assay type: cell-based, Streptococcus pneumoniae
Experimental: as §1, §2, §3, §4, §5, §6, §7

[5] = tested on: S. pneumoniae AUCC483, macrolide resistant & penicillin sensitive; test: Minimum inhibitory concentration (MIC), broth microdilution, AUCC483; assay type: cell-based, Streptococcus pneumoniae
Experimental: as §1, §2, §3, §4, §5, §6, §7

CYP3A4 [6] = molecular target: T1, CYP3A4 (Homo sapiens, UniProt P08684); settings: background statement; cited from earlier work
P-gp = P-gp (Homo sapiens, UniProt P08183); settings: background statement; cited from earlier work
CYP3A4 [7] = molecular target: T1, CYP3A4; test: biochemical
Experimental: Cytochrome P4503A4 Inhibition Assay for Determining IC50
The potential of the compound to inhibit CYP 3A4 was tested by the LC-MS/MS based probe substrate method using human liver microsomes. Midazolam or testosterone, which are metabolized to hydroxymidazolam or hydroxytestosterone by CYP 3A4, were the probe substrates used. […] NADPH was added as the cofactor. […] After incubation for ten minutes, the amount of 1-hydroxymidazolam or 6β-hydroxyltestosterone formed was determined by LC-MS/MS method as a measure of enzyme activity. Percent inhibition of enzyme activity was calculated based on the amount of metabolites (1-hydroxymidazolam or 6β-hydroxyltestosterone) formed for each sample relative to the basal control and plotted in a curve versus the compound concentration to obtain the IC50.

T1 sequence (P08684 whole entry): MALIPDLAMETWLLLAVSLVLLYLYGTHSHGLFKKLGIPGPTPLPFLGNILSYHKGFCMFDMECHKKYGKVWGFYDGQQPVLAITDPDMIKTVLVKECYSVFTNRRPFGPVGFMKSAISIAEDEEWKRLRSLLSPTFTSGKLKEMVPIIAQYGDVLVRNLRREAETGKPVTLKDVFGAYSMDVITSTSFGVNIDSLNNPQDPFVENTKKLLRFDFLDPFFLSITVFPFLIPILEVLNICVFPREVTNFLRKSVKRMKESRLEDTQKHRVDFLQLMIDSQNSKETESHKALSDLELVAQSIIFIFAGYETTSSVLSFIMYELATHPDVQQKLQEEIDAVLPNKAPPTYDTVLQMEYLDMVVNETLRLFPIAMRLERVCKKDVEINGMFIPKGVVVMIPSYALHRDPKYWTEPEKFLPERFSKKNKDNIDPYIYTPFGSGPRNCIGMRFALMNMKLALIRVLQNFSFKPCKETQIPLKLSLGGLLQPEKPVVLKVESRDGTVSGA
Sequence of P-gp (P08183 whole entry): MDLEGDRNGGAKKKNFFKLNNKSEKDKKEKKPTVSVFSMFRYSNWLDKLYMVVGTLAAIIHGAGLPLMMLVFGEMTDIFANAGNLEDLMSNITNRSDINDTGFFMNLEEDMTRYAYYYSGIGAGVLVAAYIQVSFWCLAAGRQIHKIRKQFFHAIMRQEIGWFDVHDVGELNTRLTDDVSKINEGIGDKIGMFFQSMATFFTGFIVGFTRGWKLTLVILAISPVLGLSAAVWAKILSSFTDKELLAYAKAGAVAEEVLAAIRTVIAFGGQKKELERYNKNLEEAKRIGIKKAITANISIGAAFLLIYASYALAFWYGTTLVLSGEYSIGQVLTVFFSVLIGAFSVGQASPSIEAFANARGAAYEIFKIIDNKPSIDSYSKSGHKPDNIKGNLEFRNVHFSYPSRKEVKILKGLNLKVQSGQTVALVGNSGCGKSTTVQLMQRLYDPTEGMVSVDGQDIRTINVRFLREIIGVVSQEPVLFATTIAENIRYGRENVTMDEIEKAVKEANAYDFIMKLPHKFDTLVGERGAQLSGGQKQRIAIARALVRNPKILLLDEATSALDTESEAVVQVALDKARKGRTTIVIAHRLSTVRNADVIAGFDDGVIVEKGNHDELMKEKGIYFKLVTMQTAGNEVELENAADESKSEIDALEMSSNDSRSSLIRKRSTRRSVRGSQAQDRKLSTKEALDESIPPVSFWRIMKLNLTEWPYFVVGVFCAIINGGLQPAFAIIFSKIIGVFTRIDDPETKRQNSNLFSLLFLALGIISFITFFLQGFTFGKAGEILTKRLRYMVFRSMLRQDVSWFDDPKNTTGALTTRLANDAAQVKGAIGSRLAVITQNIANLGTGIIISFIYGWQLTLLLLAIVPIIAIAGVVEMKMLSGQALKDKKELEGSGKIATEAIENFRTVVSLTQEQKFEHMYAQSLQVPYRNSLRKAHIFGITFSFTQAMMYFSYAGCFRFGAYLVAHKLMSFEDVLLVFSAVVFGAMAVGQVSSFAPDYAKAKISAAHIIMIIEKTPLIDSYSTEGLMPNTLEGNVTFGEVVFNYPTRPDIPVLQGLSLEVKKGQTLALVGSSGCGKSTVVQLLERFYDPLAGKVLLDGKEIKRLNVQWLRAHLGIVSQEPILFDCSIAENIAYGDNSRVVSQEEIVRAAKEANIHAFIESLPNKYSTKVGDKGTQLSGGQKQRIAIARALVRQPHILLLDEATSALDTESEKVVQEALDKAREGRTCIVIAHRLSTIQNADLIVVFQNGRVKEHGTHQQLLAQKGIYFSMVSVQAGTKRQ

## CC[C@H]1OC(=O)[C@@](C)(F)C(=O)[C@H](C)[C@@H](O[C@@H]2O[C@H](C)C[C@H](N(C)C)[C@H]2O)[C@](C)(OC)C[C@@H](C)C(=O)[C@H](C)[C@H]2N(CCCCn3cc(-c4cccc(N)c4)nn3)C(=O)O[C@]12C [solithromycin, reference compound]
[1]
  MIC: 4 to 15 ng/mL (≈ 4.73 to 17.8 nM)
[2]
  MIC Strep. Pneumoniae AUCC 479 penS, macS: 4 to 15 ng/mL
[3]
  MIC Strep. Pneumoniae AUCC 488 penR, macR M or iMLS: 60 to 250 ng/mL
[4]
  MIC Strep. Pneumoniae AUCC 489 penR, macR cMLS: 4 to 8 ng/mL
[5]
  MIC Strep. Pneumoniae AUCC 483 penS, macR cMLS: 8 to 15 ng/mL
CYP3A4 [6]
  inhibition of CYP3A4: strong inhibitor
P-gp
  inhibition of P-gp: moderate inhibitor
CYP3A4 [7]
  IC50: 400 nM and 1490 nM
